According to patent EP0357416A2, “Use of serotonin antagonists in the treatment of drug addiction” (GLAXO GROUP LIMITED, priority 1988, dated 1990):

Legend:
[1] = test system: Alcohol-preferring rats; test: Alcohol consumption test in rats (computerised drinkometer); format: in vivo, Male Wistar rats; conditions: 6% v/v ethanol, 0.1µg/kg i.p. once daily for 7 days, 1h prior to the 12h dark cycle
Protocol: Male Wistar rats, initially weighing 200g, were housed individually in suspended stainless steel cages. The animal colony room was controlled for temperature (22-24°C) and humidity (55%) and was maintained on a 12-hour dark-light cycle which began at 1900 hours. Rats were allowed free access to food, water and ethanol solutions. Water and ethanol solutions were presented in two custom-designed drinkometer tubes mounted on the front of each rat cage. To avoid bias generated by a position preference, the tube positions were randomly reversed on each ethanol presentation. Water and ethanol consumption were continuously monitored daily during the drinking cycle (1900 to 0700h). Minute-to-minute ethanol and water volume consumptions were recorded using a computerised drinkometer system. This system consists of pressure transducers embedded in the base of the drinking tube and accurately detects significant volume changes as small as 0.1ml. Ethanol drinking solutions were prepared by diluting 95% ethyl alcohol with distilled water to form 6% v/v concentrations. From the minute-to-minute volume recordings, the following variables were calculated : total ethanol volume; total ethanol preference; weight-adjusted ethanol volume and total minutes of ethanol drinking activity. […]

[2] = test system: Rats; test: Rat social interaction test (withdrawal from chronic treatment with a drug or substance of abuse); format: in vivo; conditions: rats withdrawn after diazepam 10mg/kg i.p. b.d. for 14 days; test compound 1µg/kg i.p. once daily immediately after withdrawal
Protocol: The method was based on that described by S. E. File, J. Neurosci. Methods, 1980, 2, 219-238. Rats were treated chronically with diazepam (10mg/kg i.p. b.d.) for 14 days and then withdrawn.

Q: Cc1[nH]cnc1CN1CCc2c(c3ccccc3n2C)C1=O.Cl [test compound, 2,3,4,5-tetrahydro-5-methyl-2-[(5-methyl-1H-imidazol-4-yl)methyl]-1H-pyrido[4,3-b]indol-1-one hydrochloride] was tested. Which ethanol drinking time [1] did it give?
A: reduced

Q: What about the ethanol intake [1] of the same compound?
A: reduced

Q: What about the “withdrawal response (reduced social interaction)” value [2] of the same compound?
A: the withdrawal response was not observed
